Laboratory results reported in patent US20240246942A1, “KINASE INHIBITORS FOR THE TREATMENT OF NEURODEGENERATIVE DISEASES” (priority 2020, published 2024).

Key:
Test in all cases: biochemical
[1] = biological target: T1, panel of 374 wild-type kinases (Homo sapiens, UniProt P11362); conditions: read-out: % Enzyme Activity (relative to DMSO controls), FGFR1
T1 construct: purchased Reaction Biology Corporation

[2] = biological target: T2, panel of 374 wild-type kinases (Homo sapiens, UniProt P36896); conditions: read-out: % Enzyme Activity (relative to DMSO controls), ALK4/ACVR1B
T2 construct: purchased Reaction Biology Corporation
T2 sequence (P36896 24-505): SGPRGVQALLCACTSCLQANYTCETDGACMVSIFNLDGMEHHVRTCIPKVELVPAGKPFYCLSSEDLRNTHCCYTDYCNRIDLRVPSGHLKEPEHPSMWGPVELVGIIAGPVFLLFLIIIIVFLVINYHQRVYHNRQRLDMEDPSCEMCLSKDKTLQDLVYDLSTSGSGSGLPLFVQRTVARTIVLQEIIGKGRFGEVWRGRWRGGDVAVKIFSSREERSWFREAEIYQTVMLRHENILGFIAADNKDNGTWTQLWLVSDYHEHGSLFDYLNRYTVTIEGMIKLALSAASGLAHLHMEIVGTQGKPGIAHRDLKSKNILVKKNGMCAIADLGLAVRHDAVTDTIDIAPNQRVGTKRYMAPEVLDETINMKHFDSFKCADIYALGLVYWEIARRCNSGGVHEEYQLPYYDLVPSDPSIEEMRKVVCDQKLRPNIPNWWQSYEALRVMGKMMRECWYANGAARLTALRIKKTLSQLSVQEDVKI

[3] = biological target: T3, panel of 374 wild-type kinases (Homo sapiens, UniProt P54756); conditions: read-out: % Enzyme Activity (relative to DMSO controls), EPHA5
T3 construct: purchased Reaction Biology Corporation
T3 sequence (P54756 25-1037): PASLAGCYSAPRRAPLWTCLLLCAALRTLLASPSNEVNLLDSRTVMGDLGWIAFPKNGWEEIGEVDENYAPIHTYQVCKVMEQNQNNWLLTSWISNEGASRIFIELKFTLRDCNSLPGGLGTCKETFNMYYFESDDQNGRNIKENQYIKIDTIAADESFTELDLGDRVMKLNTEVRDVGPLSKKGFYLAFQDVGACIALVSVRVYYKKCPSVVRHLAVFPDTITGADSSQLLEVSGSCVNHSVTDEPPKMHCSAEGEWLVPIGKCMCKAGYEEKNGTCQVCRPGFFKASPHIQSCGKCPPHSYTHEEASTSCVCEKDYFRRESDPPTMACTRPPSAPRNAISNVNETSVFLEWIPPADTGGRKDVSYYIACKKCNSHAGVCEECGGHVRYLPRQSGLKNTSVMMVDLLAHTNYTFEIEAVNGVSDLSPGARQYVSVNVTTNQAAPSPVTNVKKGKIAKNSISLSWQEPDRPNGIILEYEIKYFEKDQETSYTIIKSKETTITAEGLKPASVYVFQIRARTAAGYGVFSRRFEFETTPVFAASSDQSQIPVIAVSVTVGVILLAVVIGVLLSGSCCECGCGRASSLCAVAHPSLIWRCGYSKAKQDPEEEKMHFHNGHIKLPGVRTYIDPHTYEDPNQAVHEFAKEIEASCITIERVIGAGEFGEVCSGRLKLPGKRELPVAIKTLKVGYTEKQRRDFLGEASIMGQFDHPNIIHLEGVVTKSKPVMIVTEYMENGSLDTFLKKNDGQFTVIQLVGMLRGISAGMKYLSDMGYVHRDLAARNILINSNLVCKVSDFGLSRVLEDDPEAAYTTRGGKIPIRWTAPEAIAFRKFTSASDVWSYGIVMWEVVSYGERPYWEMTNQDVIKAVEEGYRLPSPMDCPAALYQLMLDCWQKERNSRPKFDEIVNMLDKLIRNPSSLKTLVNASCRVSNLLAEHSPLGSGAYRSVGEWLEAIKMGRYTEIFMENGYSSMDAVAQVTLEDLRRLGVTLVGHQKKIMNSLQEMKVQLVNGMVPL

[4] = biological target: T4, panel of 374 wild-type kinases (Homo sapiens, UniProt Q13043); conditions: read-out: % Enzyme Activity (relative to DMSO controls), MST1/STK4
T4 construct: purchased Reaction Biology Corporation
T4 sequence (Q13043 1-487): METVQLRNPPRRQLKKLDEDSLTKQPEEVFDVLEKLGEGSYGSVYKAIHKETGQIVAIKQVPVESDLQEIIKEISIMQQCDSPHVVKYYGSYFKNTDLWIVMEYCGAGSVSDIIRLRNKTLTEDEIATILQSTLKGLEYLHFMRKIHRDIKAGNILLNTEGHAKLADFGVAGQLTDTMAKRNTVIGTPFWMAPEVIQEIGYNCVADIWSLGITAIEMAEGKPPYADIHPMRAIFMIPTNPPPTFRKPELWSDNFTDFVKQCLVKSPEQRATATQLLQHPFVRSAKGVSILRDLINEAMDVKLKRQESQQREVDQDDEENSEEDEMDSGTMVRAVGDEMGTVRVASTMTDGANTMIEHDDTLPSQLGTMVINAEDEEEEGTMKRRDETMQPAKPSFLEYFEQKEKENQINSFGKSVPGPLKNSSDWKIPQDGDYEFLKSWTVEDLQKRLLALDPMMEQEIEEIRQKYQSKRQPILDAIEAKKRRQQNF

[5] = biological target: T5, panel of 374 wild-type kinases (Homo sapiens, UniProt Q13464); conditions: read-out: % Enzyme Activity (relative to DMSO controls), kinase ROCK1
T5 construct: purchased Reaction Biology Corporation
T5 sequence (Q13464 whole entry): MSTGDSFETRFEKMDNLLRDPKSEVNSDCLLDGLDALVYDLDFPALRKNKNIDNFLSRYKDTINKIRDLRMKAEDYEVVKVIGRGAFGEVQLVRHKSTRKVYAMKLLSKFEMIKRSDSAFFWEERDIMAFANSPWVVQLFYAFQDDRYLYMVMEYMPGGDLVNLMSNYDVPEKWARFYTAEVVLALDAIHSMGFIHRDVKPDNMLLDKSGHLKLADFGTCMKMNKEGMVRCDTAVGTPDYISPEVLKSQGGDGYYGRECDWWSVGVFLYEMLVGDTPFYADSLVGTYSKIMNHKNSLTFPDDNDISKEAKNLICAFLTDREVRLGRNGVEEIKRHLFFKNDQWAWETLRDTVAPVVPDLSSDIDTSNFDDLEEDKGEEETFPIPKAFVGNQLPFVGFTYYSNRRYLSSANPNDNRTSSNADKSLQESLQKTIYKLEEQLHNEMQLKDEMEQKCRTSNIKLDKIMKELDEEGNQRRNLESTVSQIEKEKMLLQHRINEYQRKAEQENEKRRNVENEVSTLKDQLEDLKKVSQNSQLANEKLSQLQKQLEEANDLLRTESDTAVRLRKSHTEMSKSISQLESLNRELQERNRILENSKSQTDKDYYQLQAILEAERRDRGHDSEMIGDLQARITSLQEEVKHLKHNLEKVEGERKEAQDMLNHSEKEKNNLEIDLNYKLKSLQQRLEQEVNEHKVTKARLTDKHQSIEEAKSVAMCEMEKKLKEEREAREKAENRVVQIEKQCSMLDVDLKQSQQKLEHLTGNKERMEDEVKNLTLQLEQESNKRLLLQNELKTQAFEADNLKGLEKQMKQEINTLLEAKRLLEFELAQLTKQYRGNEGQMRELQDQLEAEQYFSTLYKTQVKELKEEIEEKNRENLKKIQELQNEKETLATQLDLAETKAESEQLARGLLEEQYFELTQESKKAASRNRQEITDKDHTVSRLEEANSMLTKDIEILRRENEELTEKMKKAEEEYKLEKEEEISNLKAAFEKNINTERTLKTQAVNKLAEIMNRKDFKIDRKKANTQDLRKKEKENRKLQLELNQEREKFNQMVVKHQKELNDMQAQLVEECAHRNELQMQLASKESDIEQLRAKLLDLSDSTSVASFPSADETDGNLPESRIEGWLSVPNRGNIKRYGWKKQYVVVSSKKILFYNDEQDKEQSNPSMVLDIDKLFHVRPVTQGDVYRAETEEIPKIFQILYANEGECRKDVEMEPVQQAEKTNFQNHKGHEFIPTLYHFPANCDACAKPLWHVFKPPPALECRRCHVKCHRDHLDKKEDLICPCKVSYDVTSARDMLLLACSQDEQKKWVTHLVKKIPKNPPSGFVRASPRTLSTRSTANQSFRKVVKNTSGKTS

[6] = biological target: T6, panel of 374 wild-type kinases (Homo sapiens, UniProt Q15418); conditions: read-out: % Enzyme Activity (relative to DMSO controls), kinase RSK1
T6 construct: purchased Reaction Biology Corporation
T6 sequence (Q15418 whole entry): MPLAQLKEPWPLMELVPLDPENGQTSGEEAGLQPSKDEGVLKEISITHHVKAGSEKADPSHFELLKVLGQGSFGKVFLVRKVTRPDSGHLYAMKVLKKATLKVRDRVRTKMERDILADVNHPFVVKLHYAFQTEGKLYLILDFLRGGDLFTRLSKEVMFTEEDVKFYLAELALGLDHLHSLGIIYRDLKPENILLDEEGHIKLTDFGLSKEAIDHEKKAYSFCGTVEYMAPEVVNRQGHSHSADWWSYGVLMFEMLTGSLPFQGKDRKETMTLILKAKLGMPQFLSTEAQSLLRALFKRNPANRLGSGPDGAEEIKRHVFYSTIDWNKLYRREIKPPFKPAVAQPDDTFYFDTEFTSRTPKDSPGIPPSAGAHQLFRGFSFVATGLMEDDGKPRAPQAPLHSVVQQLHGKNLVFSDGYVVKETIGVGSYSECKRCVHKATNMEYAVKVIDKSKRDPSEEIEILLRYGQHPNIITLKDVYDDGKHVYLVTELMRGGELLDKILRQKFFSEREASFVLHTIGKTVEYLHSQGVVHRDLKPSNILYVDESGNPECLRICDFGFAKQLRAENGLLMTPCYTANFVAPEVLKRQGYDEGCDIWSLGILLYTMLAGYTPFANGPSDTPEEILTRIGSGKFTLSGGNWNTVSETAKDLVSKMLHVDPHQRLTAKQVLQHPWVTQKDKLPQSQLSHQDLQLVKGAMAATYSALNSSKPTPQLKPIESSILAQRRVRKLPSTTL

[7] = biological target: T7, panel of 374 wild-type kinases (Homo sapiens, UniProt Q9BXA7); conditions: read-out: % Enzyme Activity (relative to DMSO controls), kinase STK22D/TSSK1
T7 construct: purchased Reaction Biology Corporation
T7 sequence (Q9BXA7 1-367): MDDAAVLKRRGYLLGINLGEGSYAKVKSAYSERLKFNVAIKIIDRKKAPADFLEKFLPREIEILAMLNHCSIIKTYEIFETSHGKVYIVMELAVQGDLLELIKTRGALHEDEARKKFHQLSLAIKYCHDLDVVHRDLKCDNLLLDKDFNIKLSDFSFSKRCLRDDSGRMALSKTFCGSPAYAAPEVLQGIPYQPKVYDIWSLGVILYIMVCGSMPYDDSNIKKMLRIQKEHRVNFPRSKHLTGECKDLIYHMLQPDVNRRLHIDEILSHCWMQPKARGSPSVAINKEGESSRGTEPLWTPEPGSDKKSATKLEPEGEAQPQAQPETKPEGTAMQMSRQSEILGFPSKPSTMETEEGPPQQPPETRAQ

[8] = biological target: T8, panel of 374 wild-type kinases (Homo sapiens, UniProt Q9UKE5); conditions: read-out: % Enzyme Activity (relative to DMSO controls), kinase TNIK
T8 construct: purchased Reaction Biology Corporation
T8 sequence (Q9UKE5 whole entry): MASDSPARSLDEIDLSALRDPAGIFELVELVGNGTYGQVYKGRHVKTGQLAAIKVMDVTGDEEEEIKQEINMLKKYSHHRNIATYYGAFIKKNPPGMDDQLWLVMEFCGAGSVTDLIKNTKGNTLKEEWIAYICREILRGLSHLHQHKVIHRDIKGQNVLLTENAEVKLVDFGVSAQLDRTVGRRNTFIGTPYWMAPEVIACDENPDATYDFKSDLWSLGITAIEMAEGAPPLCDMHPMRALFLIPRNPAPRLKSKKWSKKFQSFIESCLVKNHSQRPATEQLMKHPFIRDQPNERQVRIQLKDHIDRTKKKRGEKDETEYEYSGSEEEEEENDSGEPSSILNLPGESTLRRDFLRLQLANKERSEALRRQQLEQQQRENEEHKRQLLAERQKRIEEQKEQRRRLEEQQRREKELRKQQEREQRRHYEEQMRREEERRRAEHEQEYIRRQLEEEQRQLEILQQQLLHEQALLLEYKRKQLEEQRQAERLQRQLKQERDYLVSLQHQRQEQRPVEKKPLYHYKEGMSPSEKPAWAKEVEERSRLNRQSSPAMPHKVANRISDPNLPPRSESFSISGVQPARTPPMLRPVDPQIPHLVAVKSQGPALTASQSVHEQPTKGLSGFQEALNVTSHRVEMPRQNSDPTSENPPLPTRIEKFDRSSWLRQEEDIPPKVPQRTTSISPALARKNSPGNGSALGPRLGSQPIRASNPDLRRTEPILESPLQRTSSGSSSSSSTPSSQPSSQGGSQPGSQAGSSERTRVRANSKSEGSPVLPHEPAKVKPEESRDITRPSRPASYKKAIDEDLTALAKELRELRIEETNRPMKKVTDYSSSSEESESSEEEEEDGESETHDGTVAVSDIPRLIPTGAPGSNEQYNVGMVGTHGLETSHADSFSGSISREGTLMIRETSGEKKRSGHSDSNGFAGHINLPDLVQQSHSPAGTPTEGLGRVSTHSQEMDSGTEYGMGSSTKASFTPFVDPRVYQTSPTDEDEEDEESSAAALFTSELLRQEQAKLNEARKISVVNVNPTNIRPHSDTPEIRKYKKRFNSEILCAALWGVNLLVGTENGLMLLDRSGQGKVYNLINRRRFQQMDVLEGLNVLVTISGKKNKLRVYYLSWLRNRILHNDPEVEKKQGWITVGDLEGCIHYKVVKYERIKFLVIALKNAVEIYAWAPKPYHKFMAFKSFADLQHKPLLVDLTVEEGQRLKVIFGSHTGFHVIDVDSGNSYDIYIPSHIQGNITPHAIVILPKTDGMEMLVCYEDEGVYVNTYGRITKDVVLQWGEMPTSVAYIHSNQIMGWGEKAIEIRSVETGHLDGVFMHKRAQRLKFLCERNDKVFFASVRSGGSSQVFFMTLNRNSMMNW

Compound | remaining activity at 10 µM ([1]; 10 uM) [%] | remaining activity at 10 µM ([2]; 10 uM) [%] | remaining activity at 10 µM ([3]; 10 uM) [%] | remaining activity at 10 µM ([4]; 10 uM) [%] | remaining activity at 10 µM ([5]; 10 uM) [%] | remaining activity at 10 µM ([6]; 10 uM) [%] | remaining activity at 10 µM ([7]; 10 uM) [%] | remaining activity at 10 µM ([8]; 10 uM) [%] | remaining activity at 5 µM [1] [%] | remaining activity at 5 µM [2] [%] | remaining activity at 5 µM [3] [%] | remaining activity at 5 µM [4] [%] | remaining activity at 5 µM [5] [%] | remaining activity at 5 µM [6] [%] | remaining activity at 5 µM [7] [%] | remaining activity at 5 µM [8] [%]
Cc1sc(C(=O)NC2COC2)cc1-n1cc(NC(=O)Nc2c(F)cccc2Cl)cn1 [Compound 27, 4-(4-(3-(2-chloro-6-fluorophenyl)ureido)-1H-pyrazol-1-yl)-5-methyl-N-(oxetan-3-yl)thiophene-2-carboxamide] | 114 | 78.5 | 106 | 107 | 96.8 | 93.2 | 103 | 94.5 | – | – | – | – | – | – | – | –
O=C(Nc1cnn(-c2csc(C(=O)NC3COC3)c2)c1)Nc1c(F)cccc1Cl [Compound 25, 4-(4-(3-(2-chloro-6-fluorophenyl)ureido)-1H-pyrazol-1-yl)-N-(oxetan-3-yl)thiophene-2-carboxamide] | – | – | – | – | – | – | – | – | 93.2 | 82 | 95 | 96.6 | 78.2 | 96.3 | 107 | 84.3
O=C(Nc1cnn(-c2csc(C(=O)NC3COC3)c2)c1)Nc1ccccc1Cl [Compound 17, 4-(4-(3-(2-chlorophenyl)ureido)-1H-pyrazol-1-yl)-N-(oxetan-3-yl)thiophene-2-carboxamide] | – | – | – | – | – | – | – | – | 98.5 | 124 | 96.9 | 99.3 | 109 | 92.4 | 102 | 53.2
